Assay results taken from ChEMBL document CHEMBL6121036, “Evaluation of Cereblon-Directing Warheads for the Development of Orally Bioavailable PROTACs” (J Med Chem, 2025).
≈ marks a conversion by molar mass, not a printed value. Calls of active or inactive are those of the source. The rule behind the calls is not given here.

Tests used:
HD-MB03 = experiment: Cytotoxicity against human HD-MB03 cells assessed as reduction in cell viability incubated for 72 hrs by cell-titer glo assay; format: functional, cell-based; details: HD-MB03, 72 h
[1] = Cmax in female CD1 mouse at 10 mg/kg, po measured upto 24 hrs by LC-MS/MS analysis; format: ADME, organism-based; details: in vivo
[2] = Effect on ZFP36L2 level in human MV4-11 cells assessed as fold change at 100 nM measured after 4 hrs; format: functional
[3] = molecular target: T1, Protein cereblon/Bromodomain-containing protein 4 (Homo sapiens, UniProt O60885+Q96SW2); experiment: PROTAC activity at CRBN/Hibit-tagged CRISPR BRD4 (unknown origin) expressed in HEK293 cells co-expressing LgBiT assessed as degradation of BRD4 by […] glo-max assay; format: cell-based
[4] = Effect on FYTTD1 level in human MV4-11 cells assessed as fold change at 100 nM measured after 4 hrs; format: functional
[5] = Stability in mouse plasma assessed as half life by UPLC-MS/MS analysis; format: ADME, cell-free
[6] = Effect on CDC42EP3 level in human MV4-11 cells assessed as fold change at 100 nM measured after 4 hrs; format: functional
[7] = Effect on TP53 level in human MV4-11 cells assessed as fold change at 100 nM measured after 4 hrs; format: functional
[8] = Effect on CCND3 level in human MV4-11 cells assessed as fold change at 100 nM measured after 4 hrs; format: functional
[9] = Effect on PLK1 level in human MV4-11 cells assessed as fold change at 100 nM measured after 4 hrs; format: functional
[10] = Effect on NSA2 level in human MV4-11 cells assessed as fold change at 100 nM measured after 4 hrs; format: functional
[11] = molecular target: T2, Protein cereblon/Bromodomain-containing protein 3 (Homo sapiens) (UniProt Q15059+Q96SW2); experiment: PROTAC activity at CRBN/Hibit-tagged CRISPR BRD3 (unknown origin) expressed in HEK293 cells co-expressing LgBiT assessed as degradation of BRD3 by […] glo-max assay; format: cell-based
[12] = Kinetic aqueous solubility of the compound at pH 7.4; format: physicochemical; details: read-out: Kinetic_solubility
[13] = molecular target: T1, Protein cereblon/Bromodomain-containing protein 4; experiment: PROTAC activity at CRBN/Hibit-tagged BRD4 (unknown origin) expressed in HEK293 cells co-expressing LgBiT assessed as degradation of BRD4 incubated for 24 hrs by […] glo-max assay; format: cell-based
[14] = molecular target: T3, Protein cereblon/Bromodomain-containing protein 2 (Homo sapiens) (UniProt P25440+Q96SW2); experiment: PROTAC activity at CRBN/Hibit-tagged CRISPR BRD2 (unknown origin) expressed in HEK293 cells coexpressing LgBiT assessed as degradation of BRD2 by […] glo-max assay relative to control; format: cell-based
[15] = Effect on ZBTB21 level in human MV4-11 cells assessed as fold change at 100 nM measured after 4 hrs; format: functional
[16] = Permeability in MDCK-II cells incubated for 1 hr by UPLC/MS/UV analysis; format: ADME, cell-based, Canis lupus familiaris; details: dog, read-out: permeability
[17] = molecular target: T3, Protein cereblon/Bromodomain-containing protein 2 (Homo sapiens); experiment: PROTAC activity at CRBN/Hibit-tagged CRISPR BRD2 (unknown origin) expressed in HEK293 cells coexpressing LgBiT assessed as degradation of BRD2 measured after 10 to 14 hrs by […] glo-max assay; format: cell-based; details: time 10-14 hrs
[18] = molecular target: T3, Protein cereblon/Bromodomain-containing protein 2 (Homo sapiens); experiment: PROTAC activity at CRBN/Hibit-tagged CRISPR BRD2 (unknown origin) expressed in HEK293 cells coexpressing LgBiT assessed as degradation of BRD2 by […] glo-max assay; format: cell-based
[19] = Effect on NOP53 level in human MV4-11 cells assessed as fold change at 100 nM measured after 4 hrs; format: functional
[20] = Effect on FGL2 level in human MV4-11 cells assessed as fold change at 100 nM measured after 4 hrs; format: functional
[21] = molecular target: T1, Protein cereblon/Bromodomain-containing protein 4; experiment: PROTAC activity at CRBN/Hibit-tagged CRISPR BRD4 (unknown origin) expressed in HEK293 cells co-expressing LgBiT assessed as degradation of BRD4 measured after 18 to 24 hrs by […] glo-max assay; format: cell-based; details: time 18-24 hrs
[22] = Effect on BRD2 level in human MV4-11 cells assessed as fold change at 100 nM measured after 4 hrs; format: functional
[23] = molecular target: T1, Protein cereblon/Bromodomain-containing protein 4; experiment: PROTAC activity at CRBN/Hibit-tagged BRD4 (unknown origin) expressed in HEK293 cells co-expressing LgBiT assessed as degradation rate incubated for 24 hrs by […] glo-max assay; format: cell-based
[24] = molecular target: T2, Protein cereblon/Bromodomain-containing protein 3 (Homo sapiens); experiment: PROTAC activity at CRBN/Hibit-tagged CRISPR BRD3 (unknown origin) expressed in HEK293 cells co-expressing LgBiT assessed as degradation of BRD3 by […] glo-max assay relative to control; format: cell-based
[25] = molecular target: T1, Protein cereblon/Bromodomain-containing protein 4; experiment: PROTAC activity at CRBN/Hibit-tagged CRISPR BRD4 (unknown origin) expressed in HEK293 cells co-expressing LgBiT assessed as degradation of BRD4 by […] glo-max assay relative to control; format: cell-based
[26] = Effect on MCL1 level in human MV4-11 cells assessed as fold change at 100 nM measured after 4 hrs; format: functional
[27] = molecular target: T4, Protein cereblon/Bromodomain-containing protein 4/DNA damage-binding protein 1 (Homo sapiens) (UniProt O60885+Q96SW2+Q16531); experiment: Binding affinity to his-tagged CRBN/DDB1/GST-tagged BRD4 (49 to 170 residues)(unknown origin) assessed as ternary complex formation (AUC) incubated for 1 hr by luminescence based Alphascreen assay; format: protein assay
[28] = Effect on RNF166 level in human MV4-11 cells assessed as fold change at 100 nM measured after 4 hrs; format: functional
[29] = AUC last in female CD1 mouse at 10 mg/kg, po measured upto 24 hrs by LC-MS/MS analysis; format: ADME, organism-based; details: in vivo
[30] = Effect on MYC level in human MV4-11 cells assessed as fold change at 100 nM measured after 4 hrs; format: functional
[31] = molecular target: T2, Protein cereblon/Bromodomain-containing protein 3 (Homo sapiens); experiment: PROTAC activity at CRBN/Hibit-tagged CRISPR BRD3 (unknown origin) expressed in HEK293 cells co-expressing LgBiT assessed as degradation of BRD3 measured after 13 to 16 hrs by […] glo-max assay; format: cell-based; details: time 13-16 hrs
[32] = Effect on BRD4 level in human MV4-11 cells assessed as fold change at 100 nM measured after 4 hrs; format: functional
[33] = Effect on BRD3 level in human MV4-11 cells assessed as fold change at 100 nM measured after 4 hrs; format: functional
[34] = molecular target: T1, Protein cereblon/Bromodomain-containing protein 4; experiment: PROTAC activity at CRBN/Hibit-tagged BRD4 (unknown origin) expressed in HEK293 cells co-expressing LgBiT assessed as degradation of BRD4 incubated for 24 hrs by […] glo-max assay relative to control; format: cell-based
[35] = Effect on CCNF level in human MV4-11 cells assessed as fold change at 100 nM measured after 4 hrs; format: functional
[36] = Metabolic stability in mouse liver microsomes assessed as half life; format: ADME, Microsome; details: for half-life: liver microsomes
HEK293 = experiment: Cytotoxicity against HEK293 cells expressing LgBiT fused HiBiT-BRD2 measured after 24 hrs by cell titer-glo assay; format: toxicity, cell-based; details: human, hek293, 24 h
MV4-11 = experiment: Cytotoxicity against human MV4-11 cells assessed as reduction in cell viability incubated for 72 hrs by cell-titer glo assay; format: functional, cell-based; details: MV4-11, 72 h
[37] = Effect on AURKA level in human MV4-11 cells assessed as fold change at 100 nM measured after 4 hrs; format: functional
[38] = Effect on PLAU level in human MV4-11 cells assessed as fold change at 100 nM measured after 4 hrs; format: functional
[39] = molecular target: Protein cereblon (Homo sapiens) (UniProt Q96SW2); experiment: Binding affinity to CRBN (unknown origin)
[40] = Permeability in human MV4-11 cells assessed as cell availability index relative to lenalidomide; format: ADME, cell-based
[41] = molecular target: T4, Protein cereblon/Bromodomain-containing protein 4/DNA damage-binding protein 1 (Homo sapiens); experiment: Binding affinity to his-tagged CRBN/DDB1/GST-tagged BRD4 (49 to 170 residues)(unknown origin) assessed as ternary complex formation by measuring AUC incubated for 1 hr by luminescence based Alphascreen assay; format: protein assay

Cc1sc2c(c1C)C(c1ccc(Cl)cc1)=N[C@@H](CC(=O)N1CCC(CN3CCN(c4ccc5c(c4)n(C)c(=O)n5C4CCC(=O)NC4=O)CC3)CC1)c1nnc(C)n1-2 (some centres undefined)
IC50 (HD-MB03): 0.56 nM
Cmax [1]: 23 ng/mL
fold change (FC) [2]: -1.03
Activity [3]: Active
fold change (FC) [4]: -1.69
half-life [5]: 4100 min
fold change (FC) [6]: -1.05
fold change (FC) [7]: 1.88
fold change (FC) [8]: -0.86
fold change (FC) [9]: -0.76
fold change (FC) [10]: -1.12
Activity [11]: Active
solubility kinetic [12]: 74.5 µM (≈ 61.3 µg/mL)
DC50 [13]: 0.57 nM
Activity [14]: > 95%
fold change (FC) [15]: -0.13
Papp at 1 h [16]: 0.95 ×10⁻⁶ cm/s
Activity [17]: Active
Activity [18]: Active
fold change (FC) [19]: -0.87
fold change (FC) [20]: -0.86
Activity [21]: Active
fold change (FC) [22]: -3.63
Activity [23]: 0.343 fRLU/hr
Activity [24]: > 95%
Activity [25]: > 90%
fold change (FC) [26]: -1.19
Activity [27]: Active
fold change (FC) [28]: -0.24
AUC(0-t) at 24 h [29]: 97 ng·h/mL
fold change (FC) [30]: -2.43
Activity [31]: Active
fold change (FC) [32]: -3.81
fold change (FC) [33]: -4.26
Emax [34]: 96.9%
fold change (FC) [35]: -2.01
half-life [36]: 130 min
t1/2 ([36]; microsomes): 2.17 h
Activity (HEK293): Non-toxic
IC50 (MV4-11): 0.03 nM
fold change (FC) [37]: -1.01
fold change (FC) [38]: -1.08
Activity [39]: Active
Ratio [40]: 3.7

Cc1sc2c(c1C)C(c1ccc(Cl)cc1)=N[C@@H](CC(=O)NCCc1ccc(C3CCC(=O)NC3=O)cc1)c1nnc(C)n1-2 (some centres undefined)
IC50 (HD-MB03): 2.23 nM
solubility kinetic [12]: 71.4 µM (≈ 43.9 µg/mL)
DC50 [13]: 0.19 nM
AUC [41]: 292000
Activity [23]: 0.733 fRLU/hr
Activity [27]: Active
Emax [34]: 98%
half-life [36]: 16.2 min
Activity (HEK293): Non-toxic
IC50 (MV4-11): 0.18 nM

Cc1sc2c(c1C)C(c1ccc(Cl)cc1)=N[C@@H](CC(=O)N1CCC(CN3CCN(c4ccc5c(c4)CN(C4CCC(=O)NC4=O)C5=O)CC3)CC1)c1nnc(C)n1-2 (some centres undefined)
IC50 (HD-MB03): 1.56 nM
fold change (FC) [2]: -1
Activity [3]: Active
fold change (FC) [4]: -1.54
half-life [5]: 1790 min
fold change (FC) [6]: -1.25
fold change (FC) [7]: 1.87
fold change (FC) [8]: -0.97
fold change (FC) [9]: -0.78
fold change (FC) [10]: -1.06
Activity [11]: Active
solubility kinetic [12]: 48.4 µM (≈ 39.1 µg/mL)
DC50 [13]: 0.58 nM
Activity [14]: > 95%
fold change (FC) [15]: -0.1
Papp at 1 h [16]: 3.4 ×10⁻⁶ cm/s
Activity [17]: Active
Activity [18]: Active
fold change (FC) [19]: -0.82
fold change (FC) [20]: -1.05
Activity [21]: Active
fold change (FC) [22]: -2.91
Activity [23]: 0.201 fRLU/hr
Activity [24]: > 95%
Activity [25]: > 90%
fold change (FC) [26]: -1.06
Activity [27]: Active
fold change (FC) [28]: -0.92
fold change (FC) [30]: -1.72
Activity [31]: Active
fold change (FC) [32]: -3.57
fold change (FC) [33]: -3.9
Emax [34]: 96.6%
fold change (FC) [35]: -1.47
half-life [36]: 45 min
Activity (HEK293): Non-toxic
IC50 (MV4-11): 0.14 nM
fold change (FC) [37]: -0.9
fold change (FC) [38]: -1.05
Activity [39]: Active
